{
  "source": "paper PMC10850145",
  "about": "“Hormonal steroids induce multidrug resistance and stress response genes in Neisseria gonorrhoeae by binding to MtrR” (Nature Communications, 2024)",
  "system": "mtrC-lacZ expression",
  "format": "cell-based, Neisseria gonorrhoeae",
  "details": "for Miller units, single well / Miller units, Mean: upper 4-row block; for Miller units, single well: individual replicate; for Miller units, Mean: mean of 4 wells; for β-galactosidase activity, single replicate: ΔmtrR + mtrR R176E in trans; for β-galactosidase activity, individual replicate / β-galactosidase activity, Miller units (single replicate): mtrR WT in cis; for β-galactosidase activity, individual replicate: single replicate values, second (right) block",
  "key": {"[1]": {"details": "6.25 µM hormone, plate columns 1-6 (WT)"}, "[2]": {"details": "6.25 µM hormone, plate columns 7-12 (second strain, not WT)"}, "[3]": {"details": "12.5 µM hormone, plate columns 1-6 (WT)"}, "[4]": {"details": "12.5 µM hormone, plate columns 7-12 (second strain, not WT)"}, "[5]": {"details": "25 µM hormone, plate columns 7-12 (second strain, not WT)"}, "[6]": {"details": "50 µM hormone, plate columns 1-6 (WT)"}, "[7]": {"details": "50 µM hormone, plate columns 7-12 (second strain, not WT)"}, "[8]": {"details": "mtrC-lacZ, ΔmtrR + mtrR D171A in trans, 6.25 µM hormone, single replicate"}, "[9]": {"details": "mtrC-lacZ, ΔmtrR + mtrR D171A in trans, 12.5 µM hormone, single replicate"}, "[10]": {"details": "mtrC-lacZ, ΔmtrR + mtrR D171A in trans, 25 µM hormone, single replicate"}, "[11]": {"details": "mtrC-lacZ, ΔmtrR + mtrR D171A in trans, 50 µM hormone, single replicate"}, "[12]": {"details": "mtrC-lacZ, ΔmtrR + mtrR WT in trans, 6.25 µM hormone, single replicate"}, "[13]": {"details": "mtrC-lacZ, ΔmtrR + mtrR WT in trans, 12.5 µM hormone, single replicate"}, "[14]": {"details": "mtrC-lacZ, ΔmtrR + mtrR WT in trans, 25 µM hormone, single replicate"}, "[15]": {"details": "mtrC-lacZ, ΔmtrR + mtrR WT in trans, 50 µM hormone, single replicate"}},
  "note": "“And” between values parts separate entries of the source, which are not always exact repeats. Equal entries are not always repeated. Where two headings read alike, the source gives them in different places.",
  "data": [
    {"smiles": "CC(=O)[C@H]1CC[C@H]2[C@@H]3CCC4=CC(=O)CC[C@]4(C)[C@H]3CC[C@]12C", "note": "[Progesterone, progesterone]", "values": [
      {"measurement": "Miller units", "setting": "6.25 µM hormone, plate columns 1-6 (WT), plate rows 1-4 (mtrC), single well", "value": "82 Miller units and 48 Miller units and 89 Miller units"},
      {"measurement": "Miller units, single well", "setting": "[1]", "value": "82 Miller units and 48 Miller units and 89 Miller units and 47 Miller units"},
      {"measurement": "Miller units, Mean", "setting": "[1]", "value": 66, "unit": "Miller units"},
      {"measurement": "Miller units", "setting": "6.25 µM hormone, plate columns 7-12 (second strain not given), plate rows 1-4 (mtrC), single well", "value": "315 Miller units and 180 Miller units and 172 Miller units"},
      {"measurement": "Miller units, single well", "setting": "[2]", "value": "315 Miller units and 180 Miller units and 172 Miller units and 146 Miller units"},
      {"measurement": "Miller units, Mean", "setting": "[2]", "value": 203, "unit": "Miller units"},
      {"measurement": "Miller units", "setting": "12.5 µM hormone, plate columns 1-6 (WT), plate rows 1-4 (mtrC), single well", "value": "112 Miller units and 91 Miller units and 70 Miller units"},
      {"measurement": "Miller units, single well", "setting": "[3]", "value": "112 Miller units and 91 Miller units and 70 Miller units and 43 Miller units"},
      {"measurement": "Miller units, Mean", "setting": "[3]", "value": 79, "unit": "Miller units"},
      {"measurement": "Miller units", "setting": "12.5 µM hormone, plate columns 7-12 (second strain not given), plate rows 1-4 (mtrC), single well", "value": "228 Miller units and 168 Miller units and 142 Miller units"},
      {"measurement": "Miller units, single well", "setting": "[4]", "value": "228 Miller units and 168 Miller units and 142 Miller units and 163 Miller units"},
      {"measurement": "Miller units, Mean", "setting": "[4]", "value": 175, "unit": "Miller units"},
      {"measurement": "Miller units", "setting": "25 µM hormone, plate columns 1-6 (WT), plate rows 1-4 (mtrC), single well", "value": "152 Miller units and 193 Miller units"},
      {"measurement": "Miller units, single well", "setting": "25 µM hormone, plate columns 1-6 (WT)", "value": "152 Miller units and 193 Miller units and 125 Miller units"},
      {"measurement": "Miller units", "setting": "25 µM hormone, plate columns 7-12 (second strain not given), plate rows 1-4 (mtrC), single well", "value": "253 Miller units and 170 Miller units and 160 Miller units"},
      {"measurement": "Miller units, single well", "setting": "[5]", "value": "253 Miller units and 170 Miller units and 160 Miller units and 118 Miller units"},
      {"measurement": "Miller units, Mean", "setting": "[5]", "value": 175, "unit": "Miller units"},
      {"measurement": "Miller units", "setting": "50 µM hormone, plate columns 1-6 (WT), plate rows 1-4 (mtrC), single well", "value": "185 Miller units and 157 Miller units and 126 Miller units"},
      {"measurement": "Miller units, single well", "setting": "[6]", "value": "185 Miller units and 157 Miller units and 126 Miller units and 75 Miller units"},
      {"measurement": "Miller units, Mean", "setting": "[6]", "value": 136, "unit": "Miller units"},
      {"measurement": "Miller units", "setting": "50 µM hormone, plate columns 7-12 (second strain not given), plate rows 1-4 (mtrC), single well", "value": "186 Miller units and 138 Miller units and 118 Miller units"},
      {"measurement": "Miller units, single well", "setting": "[7]", "value": "186 Miller units and 138 Miller units and 118 Miller units and 96 Miller units"},
      {"measurement": "Miller units, Mean", "setting": "[7]", "value": 134, "unit": "Miller units"},
      {"measurement": "induction of mtrC expression", "setting": "complemented (MtrR+) strains, increasing hormone", "value": "could be induced"},
      {"measurement": "induction of mtrC expression", "setting": "loss of MtrR or MtrR-D171A strain", "value": "abrogated"},
      {"measurement": "Miller units", "setting": "[8]", "value": "150 Miller units and 142 Miller units"},
      {"measurement": "β-galactosidase activity (Miller units)", "setting": "[8]", "value": "147 Miller units and 144 Miller units and 150 Miller units and 142 Miller units"},
      {"measurement": "Miller units", "setting": "[9]", "value": "139 Miller units and 154 Miller units"},
      {"measurement": "β-galactosidase activity (Miller units)", "setting": "[9]", "value": "146 Miller units and 130 Miller units and 139 Miller units and 154 Miller units"},
      {"measurement": "Miller units", "setting": "[10]", "value": 164, "unit": "Miller units"},
      {"measurement": "β-galactosidase activity (Miller units)", "setting": "[10]", "value": "161 Miller units and 184 Miller units and 164 Miller units"},
      {"measurement": "Miller units", "setting": "[11]", "value": "111 Miller units and 106 Miller units"},
      {"measurement": "β-galactosidase activity (Miller units)", "setting": "[11]", "value": "114 Miller units and 91 Miller units and 111 Miller units and 106 Miller units"},
      {"measurement": "Miller units", "setting": "[12]", "value": "71 Miller units and 75 Miller units and 104 Miller units and 85 Miller units"},
      {"measurement": "β-galactosidase activity (Miller units)", "setting": "[12]", "value": "71 Miller units and 75 Miller units and 104 Miller units and 85 Miller units"},
      {"measurement": "Miller units", "setting": "[13]", "value": "90 Miller units and 80 Miller units and 98 Miller units and 88 Miller units"},
      {"measurement": "β-galactosidase activity (Miller units)", "setting": "[13]", "value": "90 Miller units and 80 Miller units and 98 Miller units and 88 Miller units"},
      {"measurement": "Miller units", "setting": "[14]", "value": "120 Miller units and 101 Miller units and 124 Miller units and 107 Miller units"},
      {"measurement": "β-galactosidase activity (Miller units)", "setting": "[14]", "value": "120 Miller units and 101 Miller units and 124 Miller units and 107 Miller units"},
      {"measurement": "Miller units", "setting": "[15]", "value": "125 Miller units and 123 Miller units and 130 Miller units and 139 Miller units"},
      {"measurement": "β-galactosidase activity (Miller units)", "setting": "[15]", "value": "125 Miller units and 123 Miller units and 130 Miller units and 139 Miller units"},
      {"measurement": "β-galactosidase activity (Miller units)", "setting": "mtrC-lacZ, ΔmtrR strain, 6.25 µM hormone, single replicate", "value": 239, "unit": "Miller units"},
      {"measurement": "β-galactosidase activity (Miller units)", "setting": "mtrC-lacZ, ΔmtrR strain, 12.5 µM hormone, single replicate", "value": 205, "unit": "Miller units"},
      {"measurement": "β-galactosidase activity (Miller units)", "setting": "mtrC-lacZ, ΔmtrR strain, 25 µM hormone, single replicate", "value": 223, "unit": "Miller units"},
      {"measurement": "β-galactosidase activity (Miller units)", "setting": "mtrC-lacZ, ΔmtrR strain, 50 µM hormone, single replicate", "value": 197, "unit": "Miller units"},
      {"measurement": "β-galactosidase activity, single replicate", "setting": "mtrCDE block (c1-c37), 6.25 µM", "value": "221 Miller units and 281 Miller units and 181 Miller units and 184 Miller units"},
      {"measurement": "β-galactosidase activity, single replicate", "setting": "mtrCDE block (c1-c37), 12.5 µM", "value": "215 Miller units and 235 Miller units and 172 Miller units and 208 Miller units"},
      {"measurement": "β-galactosidase activity, single replicate", "setting": "mtrCDE block (c1-c37), 25 µM", "value": "255 Miller units and 287 Miller units and 177 Miller units and 185 Miller units"},
      {"measurement": "β-galactosidase activity, single replicate", "setting": "mtrCDE block (c1-c37), 50 µM", "value": "296 Miller units and 219 Miller units and 227 Miller units and 184 Miller units"},
      {"measurement": "β-galactosidase activity, individual replicate", "setting": "6.25 µM hormone", "value": "41 Miller units and 35 Miller units"},
      {"measurement": "β-galactosidase activity, Miller units (single replicate)", "setting": "6.25 µM, first data set (c15-c36)", "value": "115 Miller units and 113 Miller units and 101 Miller units and 103 Miller units"},
      {"measurement": "β-galactosidase activity, Miller units (single replicate)", "setting": "6.25 µM, second data set (c53-c74)", "value": "37 Miller units and 29 Miller units"},
      {"measurement": "β-galactosidase activity, individual replicate", "setting": "12.5 µM hormone", "value": "61 Miller units and 54 Miller units"},
      {"measurement": "β-galactosidase activity, Miller units (single replicate)", "setting": "12.5 µM, first data set (c15-c36)", "value": "153 Miller units and 144 Miller units and 132 Miller units"},
      {"measurement": "β-galactosidase activity, Miller units (single replicate)", "setting": "12.5 µM, second data set (c53-c74)", "value": "41 Miller units and 34 Miller units"},
      {"measurement": "β-galactosidase activity, individual replicate", "setting": "25 µM hormone", "value": "90 Miller units and 65 Miller units"},
      {"measurement": "β-galactosidase activity, Miller units (single replicate)", "setting": "25 µM, first data set (c15-c36)", "value": "256 Miller units and 186 Miller units and 175 Miller units and 160 Miller units"},
      {"measurement": "β-galactosidase activity, Miller units (single replicate)", "setting": "25 µM, second data set (c53-c74)", "value": "66 Miller units and 58 Miller units"},
      {"measurement": "β-galactosidase activity, individual replicate", "setting": "50 µM hormone", "value": "111 Miller units and 114 Miller units"},
      {"measurement": "β-galactosidase activity, Miller units (single replicate)", "setting": "50 µM, first data set (c15-c36)", "value": "228 Miller units and 242 Miller units and 200 Miller units and 220 Miller units"},
      {"measurement": "β-galactosidase activity, Miller units (single replicate)", "setting": "50 µM, second data set (c53-c74)", "value": "91 Miller units and 73 Miller units"},
      {"measurement": "β-galactosidase activity, single replicate", "setting": "second block of sheet (c39-c76), 6.25 µM", "value": "130 Miller units and 89 Miller units and 76 Miller units and 71 Miller units"},
      {"measurement": "β-galactosidase activity, single replicate", "setting": "second block of sheet (c39-c76), 12.5 µM", "value": "125 Miller units and 104 Miller units and 71 Miller units and 67 Miller units"},
      {"measurement": "β-galactosidase activity, single replicate", "setting": "second block of sheet (c39-c76), 25 µM", "value": "151 Miller units and 130 Miller units and 84 Miller units and 80 Miller units"},
      {"measurement": "β-galactosidase activity, single replicate", "setting": "second block of sheet (c39-c76), 50 µM", "value": "130 Miller units and 108 Miller units and 88 Miller units and 66 Miller units"}
    ]}
  ]
}
